# How the values were obtained:
# [1] = Concentration of CMM in saturated aqueous solution; assay type: physicochemical; conditions: 25° C.
# Experimental: Successively, the glass vessel was sealed, and the suspension was stirred two days with keeping the temperature at 25° C. to give a saturated solution. After removing the solid CMM by filtrating the saturated solution, the moisture content of the filtrate was measured by the drying loss method to determine the concentration of CMM in saturated solution.
# mice = experiment: Acute toxicity test; assay type: in vivo
# Excerpt: By using mice, CMM obtained by the method in Experiment 14 was orally administrated to the mice for its acute toxicity test. […] Though not so accurate, the value of LD50 of CMM was 5 g/kg-mouse weight or higher.
# [2] = Amino-carbonyl reaction with glycine; assay type: physicochemical; conditions: […] (w/v) saccharide, 0.5% (w/v) glycine, pH 8.0, 100° C.
# Experimental: (§1) As a control, an aqueous solution containing maltose and glycine was prepared in the same manner using maltose except for the powdery hydrous crystalline CMM. Four milliliters each of the solution was put in a glass tube, sealed and then heated at 100° C. for 30, 60, or 90 min. After cooling the solutions, the degrees of coloring of the solutions were measured to estimate the degree of amino-carbonyl reaction. The degree of coloring was defined as an absorbance at 480 nm using a 1 cm-cell.
# pH stability of CMM = assay type: physicochemical; conditions: 4% (w/v) CMM, 100° C. for 24 hours
# Experimental: Eight milliliters of each solution was put in a glass tube, sealed and then heated at 100° C. for 24 hours. After cooling the solution, the degree of coloring and the purity of CMM were measured in the same manner in Experiment 17.
# Salivary α-amylase = molecular target: T1, Salivary α-amylase (Homo sapiens, UniProt P0DUB6)
# T1 sequence (P0DUB6 16-511): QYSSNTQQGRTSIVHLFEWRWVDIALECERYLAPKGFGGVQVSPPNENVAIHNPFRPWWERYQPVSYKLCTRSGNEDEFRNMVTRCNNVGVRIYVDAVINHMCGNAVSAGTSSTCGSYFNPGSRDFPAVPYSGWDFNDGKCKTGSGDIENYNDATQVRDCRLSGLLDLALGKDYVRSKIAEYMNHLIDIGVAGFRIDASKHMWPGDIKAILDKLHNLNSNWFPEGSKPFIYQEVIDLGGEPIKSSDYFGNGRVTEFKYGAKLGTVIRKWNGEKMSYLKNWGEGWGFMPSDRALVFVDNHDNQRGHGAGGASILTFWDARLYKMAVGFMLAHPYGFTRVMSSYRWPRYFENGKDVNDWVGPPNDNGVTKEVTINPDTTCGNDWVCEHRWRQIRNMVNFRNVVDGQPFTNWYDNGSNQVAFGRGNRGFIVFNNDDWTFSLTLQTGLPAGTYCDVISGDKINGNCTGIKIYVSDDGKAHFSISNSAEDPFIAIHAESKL
# Excerpt: (§2) 43, 23-29 (1990), the digestibility of CMM by salivary α-amylase, artificial gastric juice, pancreas amylase, and small intestinal enzymes were investigated using the powdery hydrous crystalline CMM, obtained by the method in Experiment 14.
# [3] = Reducing power by the Somogyi-Nelson method; assay type: physicochemical
# Excerpt: It was concluded that the saccharide was a non-reducing saccharide substantially.
# [4] = Clathrating action of CMM; assay type: physicochemical; conditions: for strength of clathrating activity in comparison with branched cyclodextrin: on a weight basis
# Excerpt: One hundred grams of the aqueous solution was admixed with 1.2 g of methanol, 1.7 g of ethanol, or 2.2 g of acetic acid as flavor components for allowing CMM to clathrate the flavor components. Successively, each solution was filtrated, and the resulting filtrate was freeze-dried to remove unclathrated flavor component. As a control, “ISOELITE P”, a mixture of branched cyclodextrins commercialized by Maruha Corporation, Tokyo, Japan, which has been known to have a clathrating activity, was tested by the same procedure. In order to measure the amount of flavor component clathrated in the freeze-dried powder, 1 g of each freeze-dried powder was dissolved in 5 ml of water and admixed with 5 ml of diethylether to extract the flavor component, and the extraction was repeated once more. The amount of the extracted flavor component in diethylether was measured by gas-chromatography.
# [5] = Amino-carbonyl reaction with polypeptone; assay type: physicochemical; conditions: 5% (w/v) saccharide, 5% (w/v) polypeptone, 120° C., blank subtracted
# Experimental: as §1, with “polypeptone” for “glycine”, “120°” for “100°”, “reaction. As a blank test, a solution containing polypeptone only was heated in the same manner.” for “reaction.”, “cm-cell after subtracting the absorbance of the blank test.” for “cm-cell.”
# rat cecal contents = experiment: Test for fermentability by rat cecal contents; assay type: in vitro ADME, Wister-rat
# Experimental: According to the method of Oku et al., described in Journal of Nutritional Science and Vitaminology, vol. […] The cecal contents was collected under an anaerobic condition by killing a Wister-rat under anesthesia and suspended into 4-folds by volume of 0.1 M sodium bicarbonate aqueous solution, and then used for the test. CMM was added to the cecal contents by about 7% (w/w) of the weight of the cecal contents. The amounts of CMM at just after mixing and after 12 hours were determined by gas-chromatography. […] About 92% of CMM was not fermented and remained.
# Excerpt for Pancreas α-amylase: as §2
# Excerpt for Small intestinal enzymes: as §2
compound,measurement,setting,value
"OC[C@H]1O[C@@H]2OC[C@H]3O[C@H](O[C@H]4[C@H](O)[C@@H](O)[C@@H](OC[C@H]5O[C@H](O[C@H]1[C@H](O)[C@H]2O)[C@H](O)[C@@H](O)[C@@H]5O)O[C@@H]4CO)[C@H](O)[C@@H](O)[C@@H]3O [CMM, cyclo{>6)-α-D-glucopyranosyl-(1>4)-α-D-glucopyranosyl-(1>6)-α-D-glucopyranosyl-(1>4)-α-D-glucopyranosyl-(1>}]",saturated concentration of CMM to water,[1],about 8.0 % (w/w)
same,mortality,mice; oral administration at the highest possible dose,no mouse died
same,LD50,"mice; oral administration, mice, though not so accurate",≥ 5 g/kg-mouse weight
same,Degradation rate (%),Pancreas α-amylase,0%
same,Degree of coloring (A480 nm),[2]; heating time 0 min,0.00
same,Degree of coloring (A480 nm),[2]; heating time 30 min,0.00
same,Degree of coloring (A480 nm),[2]; heating time 60 min,0.00
same,Degree of coloring (A480 nm),[2]; heating time 90 min,0.00
same,Degree of coloring (A480 nm),"pH stability of CMM; pH 2.0, Acetate buffer",0
same,Purity (%),"pH stability of CMM; pH 2.0, Acetate buffer",93%
same,Degree of coloring (A480 nm),"pH stability of CMM; pH 3.0, Acetate buffer",0
same,Purity (%),"pH stability of CMM; pH 3.0, Acetate buffer",100%
same,Degree of coloring (A480 nm),"pH stability of CMM; pH 4.0, Acetate buffer",0
same,Purity (%),"pH stability of CMM; pH 4.0, Acetate buffer",100%
same,Degree of coloring (A480 nm),"pH stability of CMM; pH 5.0, Acetate buffer",0
same,Purity (%),"pH stability of CMM; pH 5.0, Acetate buffer",100%
same,Degree of coloring (A480 nm),"pH stability of CMM; pH 6.0, Tris-HCl buffer",0
same,Purity (%),"pH stability of CMM; pH 6.0, Tris-HCl buffer",100%
same,Degree of coloring (A480 nm),"pH stability of CMM; pH 7.0, Tris-HCl buffer",0
same,Purity (%),"pH stability of CMM; pH 7.0, Tris-HCl buffer",100%
same,Degree of coloring (A480 nm),"pH stability of CMM; pH 8.0, Tris-HCl buffer",0
same,Purity (%),"pH stability of CMM; pH 8.0, Tris-HCl buffer",100%
same,Degree of coloring (A480 nm),"pH stability of CMM; pH 9.0, Ammonium buffer",0
same,Purity (%),"pH stability of CMM; pH 9.0, Ammonium buffer",100%
same,Degradation rate (%),Salivary α-amylase,0%
same,reducing power,[3],less than the measurable limit
same,strength of clathrating activity in comparison with branched cyclodextrin,[4]; acetic acid,~0.8 fold
same,strength of clathrating activity in comparison with branched cyclodextrin,[4]; ethanol,~0.5 fold
same,Amount of flavor component clathrated (mg/g-freeze-dried powder),[4]; flavor component Acetic acid,30.55 mg/g-freeze-dried powder
same,Amount of flavor component clathrated (mg/g-freeze-dried powder),[4]; flavor component Ethanol,4.20 mg/g-freeze-dried powder
same,Amount of flavor component clathrated (mg/g-freeze-dried powder),[4]; flavor component Methanol,4.30 mg/g-freeze-dried powder
same,strength of clathrating activity in comparison with branched cyclodextrin,[4]; methanol,about 1.3 folds
same,Degree of coloring (A480 nm),[5]; heating time 0 min,0.00
same,Degree of coloring (A480 nm),[5]; heating time 30 min,0.00
same,Degree of coloring (A480 nm),[5]; heating time 60 min,0.00
same,Degree of coloring (A480 nm),[5]; heating time 90 min,0.00
same,Degradation rate (%),Small intestinal enzymes,0%
same,CMM not fermented and remained,rat cecal contents; after 12 hours,About 92%
same,concentration of CMM in the cecal contents,rat cecal contents; after 12 hours,63.0 mg/g-cecal contents
same,concentration of CMM in the cecal contents,rat cecal contents; just after adding,68.5 mg/g-cecal contents

# — US7951530B2, “Cyclic maltosylmaltose, cyclic maltosymaltose-forming enzyme, their preparation and uses” (Kabushiki Kaisha Hayashibara Seibutsu Kagaku Kenkyujo, priority 2003, dated 2011)
